# Tests used:
# [1] = Solubility of the compound; assay type: physicochemical
# [2] = in vitro; details: rat, liver microsomes
# [3] = in vitro; details: human, liver microsomes
# [4] = Lipophilicity, log D of the compound; assay type: physicochemical; details: octanol/water
# [5] = in vitro; details: rat, cytosol
# [6] = Thermodynamic solubility of compound at physiological pH; assay type: physicochemical; details: read-out: Therm_solubility
Structure (SMILES),solubility [1],microsomal CLint [2] [µL/min/mg],microsomal CLint [3] [µL/min/mg],logD [4],half-life [5] [h],solubility thermodynamic [6] [µg/mL]
COCCCN1CCN(c2ccc(Cn3c(=O)[nH]c4c(N)nc(C(F)(F)F)cc43)cn2)CC1,soluble,,,,,
CN1CCN(CC2CCCN2c2ccc(Cn3c(=O)[nH]c4c(N)nc(C(F)(F)F)cc43)cn2)CC1 (stereo unspecified),soluble,,,,,
Nc1nc(C(F)(F)F)cc2c1[nH]c(=O)n2Cc1ccc(N2CCC[C@H]2CN2CCCC2)nc1,soluble,,,,,
CN(C)CCOc1ccc(Cn2c(=O)[nH]c3c(N)nc(C(F)(F)F)cc32)cn1,,24,22,1.2,,
CN(C)CCNc1ccc(Cn2c(=O)[nH]c3c(N)nc(C(F)(F)F)cc32)cn1,,16,9,0.7,6.17,483
Nc1nc(C(F)(F)F)cc2c1[nH]c(=O)n2Cc1ccc(OCCN2CCCC2)nc1,soluble,9,10,1.2,,
Nc1nc(C(F)(F)F)cc2c1[nH]c(=O)n2Cc1ccc(NCCN2CCCC2)nc1,,< 8.5,8.5,0.8,,
CN(C)CCN(C)c1ccc(Cn2c(=O)[nH]c3c(N)nc(C(F)(F)F)cc32)cn1,,11,16,1.2,,
COCCN1CCN(c2ccc(Cn3c(=O)[nH]c4c(N)nc(C(F)(F)F)cc43)cn2)CC1,soluble,9,17,2.3,,
CN(C)CCN1CCN(c2ccc(Cn3c(=O)[nH]c4c(N)nc(C(F)(F)F)cc43)cn2)CC1,,< 8.5,< 8,0.9,,
CN(CCN1CCCCC1)c1ccc(Cn2c(=O)[nH]c3c(N)nc(C(F)(F)F)cc32)cn1,,13,25,1.8,,
CCN(CC)CCN(C)c1ccc(Cn2c(=O)[nH]c3c(N)nc(C(F)(F)F)cc32)cn1,,11,24,1.3,,
CN1CCN(CCN(C)c2ccc(Cn3c(=O)[nH]c4c(N)nc(C(F)(F)F)cc43)cn2)CC1,,15,25,1.5,,
Nc1nc(C(F)(F)F)cc2c1[nH]c(=O)n2Cc1ccc(NCCN2CCCCC2)nc1,,16,13,1.3,,
Nc1nc(C(F)(F)F)cc2c1[nH]c(=O)n2Cc1ccc(NCCO)nc1,,< 8.5,< 8,1.6,3.27,
Nc1nc(C(F)(F)F)cc2c1[nH]c(=O)n2Cc1ccc(NCc2ccccc2)nc1,,16,< 8,1.8,4.17,
Nc1nc(C(F)(F)F)cc2c1[nH]c(=O)n2Cc1cccnc1OCCN1CCCC1,soluble,,,,,
COCCNc1ncccc1Cn1c(=O)[nH]c2c(N)nc(C(F)(F)F)cc21,soluble,,,,,
COCCCN1CCN(c2ncccc2Cn2c(=O)[nH]c3c(N)nc(C(F)(F)F)cc32)CC1,soluble,,,,,
COCCN1CCN(c2ncccc2Cn2c(=O)[nH]c3c(N)nc(C(F)(F)F)cc32)CC1,soluble,,,,,
CN1CCN(CC2CCCN2c2ncccc2Cn2c(=O)[nH]c3c(N)nc(C(F)(F)F)cc32)CC1 (stereo unspecified),soluble,,,,,
Nc1nc(C(F)(F)F)cc2c1[nH]c(=O)n2Cc1cccnc1N1CCC[C@H]1CN1CCCC1,soluble,,,,,
Nc1nc(C(F)(F)F)cc2c1[nH]c(=O)n2Cc1ccnc(OCCN2CCCC2)c1,soluble,,,,,
COCCNc1cc(Cn2c(=O)[nH]c3c(N)nc(C(F)(F)F)cc32)ccn1,soluble,,,,,
COCCCN1CCN(c2cc(Cn3c(=O)[nH]c4c(N)nc(C(F)(F)F)cc43)ccn2)CC1,soluble,,,,,
COCCN1CCN(c2cc(Cn3c(=O)[nH]c4c(N)nc(C(F)(F)F)cc43)ccn2)CC1,soluble,,,,,
CN1CCN(CC2CCCN2c2cc(Cn3c(=O)[nH]c4c(N)nc(C(F)(F)F)cc43)ccn2)CC1 (stereo unspecified),soluble,,,,,
Nc1nc(C(F)(F)F)cc2c1[nH]c(=O)n2Cc1ccnc(N2CCC[C@H]2CN2CCCC2)c1,soluble,,,,,
COCCNc1ccc(Cn2c(=O)[nH]c3c(N)nc(C(F)(F)F)cc32)cn1,soluble,,,,,

# Reference: ChEMBL document CHEMBL1833972 (Bioorg Med Chem Lett, 2011)
